Experimental data as given in PubChem BioAssay (NCI).
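1) Cells in 96-well plates. 2) Compound, 48 h, 5 concentrations. 3) Linear interpolation between surrounding doses. 4) Unreached endpoint = highest concentration. GI50: concentration for 50% inhibition of growth. TGI is the concentration that stops growth completely.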

Key:
Assay in all cases: DTP human tumour cell line panel, 48 h
A549 NSCLC = tested on: A549 NSCLC
HCT-15 colon = tested on: HCT-15 colon
HT29 colon = tested on: HT29 colon
LOX IMVI melanoma = tested on: LOX IMVI melanoma
M14 melanoma = tested on: M14 melanoma
MALME-3M melanoma = tested on: MALME-3M melanoma
MDA-MB-435 = tested on: MDA-MB-435
OVCAR-8 ovarian = tested on: OVCAR-8 ovarian
RXF 393 renal = tested on: RXF 393 renal
TK-10 renal = tested on: TK-10 renal

Structure (SMILES)	TGI (A549 NSCLC) [µM]	TGI (HCT-15 colon) [µM]	TGI (HT29 colon) [µM]	TGI (LOX IMVI melanoma) [µM]	TGI (M14 melanoma) [µM]	TGI (MALME-3M melanoma) [µM]	TGI (MDA-MB-435) [µM]	TGI (OVCAR-8 ovarian) [µM]	TGI (RXF 393 renal) [µM]	TGI (TK-10 renal) [µM]	GI50 (A549 NSCLC) [µM]	GI50 (HCT-15 colon) [µM]	GI50 (LOX IMVI melanoma) [µM]	GI50 (M14 melanoma) [µM]	GI50 (MALME-3M melanoma) [µM]	GI50 (MDA-MB-435) [µM]	GI50 (OVCAR-8 ovarian) [µM]	GI50 (RXF 393 renal) [µM]	GI50 (TK-10 renal) [µM]	GI50 (HT29 colon) [µM]
CCOC(=O)C1CCC/C1=N\N=C(N)N (centres undefined) (tested in a mixture with another compound)	> 100	> 100	> 100	> 100	> 100	> 100	> 100	> 100	> 100	> 100										
OCCNc1nc(NCCO)nc(Nc2ccc(C3=NN(c4cc(Cl)cc(Cl)c4)C(c4ccc(Cl)cc4)C3)cc2)n1 (centres undefined)	4.45	2.8		3.01	3.23	3.92	3.11	4.75	2.91	3.72	1.96	1.48	1.65	1.69	2.1	1.65	2.08	1.44	1.89	
CC(=O)OCC(=O)[C@@]1(O)[C@H](C)C[C@H]2[C@@H]3C=C(C)C4=Cc5c(cnn5-c5ccc(F)cc5)C[C@]4(C)[C@H]3[C@@H](O)C[C@@]21C	9.96	3.63	3.07	3.8	3.5	8.98	7.02	11.3	2.35	6.03	1.45	1.45	1.66	1.71	2.36	2.35	2.58	0.709	1.91	1.32
C#Cc1cccc(NC(=O)Nc2ccc(NC(=O)CCl)cc2)c1	> 82.5	36.3	36.3	3.19		23.9	> 82.5	> 82.5	23.2	> 82.5	> 82.5	15.4	1.57		12.1	22.1	22.5	9.37	21.8	14.8
CCCCCC(=O)N1c2ccccc2NC2=C(C(=O)CC(c3ccc(OC)c(OC)c3)C2)C1c1ccc(C(F)(F)F)cc1 (centres undefined)	> 100	> 100	> 100	> 100		> 100	> 100	> 100	> 100	> 100	> 100	> 100	> 100		> 100	50.7	> 100	37.6	> 100	> 100
N#C/C(=C\c1cn(-c2ccccc2)c2ccccc12)C(=O)O	> 100	> 100	> 100	> 100	> 100	> 100	> 100	> 100	> 100		42.9	30.7	3.71	61.2	> 100	39.4	44.6	28.7		53.1
COc1ncnc2c(NC3OC(CO)C(O)C3O)ncnc12 (centres undefined)		> 100	> 32	0.619	21.9	> 100	> 100	5.29	12.7	5.97										
Cn1c2ccccc2c2c(=O)n(CCCC(=O)NCC(=O)OC(=NC3CCCCC3)NC3CCCCC3)c3c(-c4ccccc4)nnn3c21	> 100	> 100		97.3	> 100	> 100	> 100	> 100	36.9	> 100	38	10.8	13.1	31.2	47.2	25.3	7.37	11.1	> 100	
CCCCCCCCCCCCCCCCC(C(=O)O)C(O)(CC(=O)O)C(=O)O (centres undefined)		> 100	45.4	66.3	47.7	> 100	> 100	> 100	53.4	> 100										
Nc1nc(-n2cccn2)nc(-n2cccn2)c1Br	> 100	> 100	> 100	> 100	> 100	> 100	> 100	> 100	> 100		> 100	> 100	> 100	> 100	> 100	> 100	> 100	> 100		> 100
COc1n[n+]([O-])c(C)cc1[N+](=O)[O-]	24.6	13.9		36	18.3	9.85	33.8	39.5	28.7	10.2	5.5	2.74	12.7	4.97	3.04	16.2	13.4	13.3	2.42	
